From article PMC11045757, “Group 3 medulloblastoma transcriptional networks collapse under domain specific EP300/CBP inhibition” (Nature Communications, 2024)

Legend:
Experiment in all cases: BromoScan profiling (DiscoverX)
Type in all cases: binding
FALZ = target: T1, FALZ (Homo sapiens, UniProt Q12830); conditions: read-out: Percent Control FALZ
T1 construct: purchased Eurofins DiscoverX (BROMOscan)

ATAD2B = target: T2, ATAD2B (Homo sapiens, UniProt Q9ULI0); conditions: read-out: Percent Control ATAD2B
T2 construct: purchased Eurofins DiscoverX (BROMOscan)
T2 sequence (Q9ULI0 whole entry): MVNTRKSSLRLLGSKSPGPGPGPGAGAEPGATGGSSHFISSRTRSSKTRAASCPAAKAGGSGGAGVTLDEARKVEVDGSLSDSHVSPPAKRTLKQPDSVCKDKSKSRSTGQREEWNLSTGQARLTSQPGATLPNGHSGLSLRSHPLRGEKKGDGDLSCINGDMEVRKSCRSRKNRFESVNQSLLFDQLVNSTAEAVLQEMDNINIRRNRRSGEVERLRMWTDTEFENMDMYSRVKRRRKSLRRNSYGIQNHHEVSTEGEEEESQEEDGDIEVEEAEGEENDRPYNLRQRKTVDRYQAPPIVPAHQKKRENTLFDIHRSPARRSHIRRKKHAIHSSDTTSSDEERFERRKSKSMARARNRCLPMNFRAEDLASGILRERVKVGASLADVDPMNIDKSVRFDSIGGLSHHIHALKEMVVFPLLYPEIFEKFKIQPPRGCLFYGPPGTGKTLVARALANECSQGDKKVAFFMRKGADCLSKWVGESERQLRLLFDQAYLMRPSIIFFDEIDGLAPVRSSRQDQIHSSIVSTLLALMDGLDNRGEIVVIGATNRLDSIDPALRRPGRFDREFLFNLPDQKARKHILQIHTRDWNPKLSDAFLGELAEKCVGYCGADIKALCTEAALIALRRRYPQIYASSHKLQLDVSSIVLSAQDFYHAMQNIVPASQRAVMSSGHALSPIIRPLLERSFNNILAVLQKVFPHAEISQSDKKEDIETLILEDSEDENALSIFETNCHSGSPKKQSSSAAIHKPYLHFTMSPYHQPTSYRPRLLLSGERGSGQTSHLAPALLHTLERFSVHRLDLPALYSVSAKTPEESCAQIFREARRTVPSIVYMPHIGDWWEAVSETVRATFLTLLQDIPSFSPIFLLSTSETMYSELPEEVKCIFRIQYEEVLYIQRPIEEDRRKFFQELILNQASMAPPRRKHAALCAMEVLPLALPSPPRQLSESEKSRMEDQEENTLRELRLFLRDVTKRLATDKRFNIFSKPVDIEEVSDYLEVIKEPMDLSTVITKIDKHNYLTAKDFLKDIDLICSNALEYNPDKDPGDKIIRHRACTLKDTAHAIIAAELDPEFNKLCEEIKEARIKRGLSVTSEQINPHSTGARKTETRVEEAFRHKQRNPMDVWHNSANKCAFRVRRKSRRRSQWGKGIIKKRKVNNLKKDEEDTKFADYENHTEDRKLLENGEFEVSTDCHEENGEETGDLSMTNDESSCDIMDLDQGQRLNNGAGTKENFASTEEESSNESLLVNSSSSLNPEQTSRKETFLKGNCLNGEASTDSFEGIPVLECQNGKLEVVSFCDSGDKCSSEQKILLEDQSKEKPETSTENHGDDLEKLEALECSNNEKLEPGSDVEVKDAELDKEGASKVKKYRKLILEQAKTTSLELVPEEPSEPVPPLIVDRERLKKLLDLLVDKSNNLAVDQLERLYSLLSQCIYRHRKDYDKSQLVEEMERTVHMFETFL

BRD2(1) = target: T3, BRD2(1) (Homo sapiens, UniProt P25440); conditions: read-out: Percent Control BRD2(1)
T3 construct: BRD2(1); purchased Eurofins DiscoverX (BROMOscan)
T3 sequence (P25440 71-194 limits assumed): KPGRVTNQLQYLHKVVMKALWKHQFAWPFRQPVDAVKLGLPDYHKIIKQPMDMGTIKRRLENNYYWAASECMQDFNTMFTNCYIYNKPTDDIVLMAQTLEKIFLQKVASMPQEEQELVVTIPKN

remaining binding at 1 µM (FALZ): 63% | remaining binding at 1 µM (ATAD2B): 79% | remaining binding at 1 µM (BRD2(1)): 3.5%
Compound: CO[C@H]1CC[C@H](n2c([C@@H]3CCCC(=O)N3c3ccc(F)c(F)c3)nc3cc(-c4c(C)noc4C)ccc32)CC1 [CCS1477]
